In assay [1] the target is T1, FhCaBP4 (Fasciola hepatica calcium-binding protein 4) (Fasciola hepatica, UniProt I6U578).
T1 construct: full-length (residues 1–191), C-terminal 6×His-tag (LEHHHHHH)
In words: microscale thermophoresis (MST), labelled purified protein.

Assay [2] addresses Fasciola hepatica calcium-binding protein 4 (FhCaBP4), full-length (residues 1–191) (Fasciola hepatica). Kind of assay: crystal structure; apo form at 1.93 Å, space group P212121, two molecules per asymmetric unit; crystals grown at 20 °C by vapor diffusion with 2 M ammonium sulfate, 0.1 M sodium citrate/citric acid pH 5.5.

With `NCCCCCCNS(=O)(=O)c1cccc2c(Cl)cccc12` [W7], in assay [1], the dissociation constant Kd is 471 ± 157 µM.
Same read-out and setting: for `CN1CCN(CCCN2c3ccccc3Sc3ccc(C(F)(F)F)cc32)CC1` [TFP] the value was 699 ± 341 µM.
As to “Fasciola hepatica calcium-binding protein 4 (FhCaBP4), full-length (residues 1–191) (natural protein)”, the stoichiometry N in assay [2] turned out to be 2.
For `CN(C)CCCN1c2ccccc2Sc2ccc(Cl)cc21` [CPZ], the Kd in assay [1] was determined as 289 ± 99.6 µM.

These data come from paper PMC12347358, “Structural Insights and Calcium-Switching Mechanism of Fasciola hepatica Calcium-Binding Protein FhCaBP4” (International Journal of Molecular Sciences, 2025).
